Literature values, collected in patent US12478612B2 (CinDome Pharma, Inc., priority 2017, dated 2025).
Read-outs that look alike come from different tables or passages of the source.

How the values were obtained:
[1] = weak base
[2] = test system: Human plasma protein

## O=c1[nH]c2ccccc2n1CCCN1CCC(n2c(=O)[nH]c3cc(Cl)ccc32)CC1 [Domperidone, 5-chloro-1-(1-[3-(2-oxo-2,3-dihydro-1H-benzo[d]imidazol-1-yl)propyl]piperidin-4-yl)-1H-benzo[d]imidazol-2(3H)-one]
[1]
  pKa: 7.89

## 5-chloro-1-(1-[3-(2-oxo-2,3-dihydro-1H-benzo[d]imidazol-1-yl)propyl]piperidin-4-yl)-1H-benzo[d]imidazol-2(3H)-one [Domperidone]
[2]; 10 ng/ml tritiated domperidone
  Human plasma protein binding: 91.7%
[2]; 100 ng/ml tritiated domperidone
  Human plasma protein binding: 93.0%
